Measurements taken from PubChem BioAssay (NCI).
Values joined by “and” are separate entries in the source; they are usually repeats but may differ in a detail not shown here. Identical values can stand only once.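 The compound was tested at five concentrations on cells cultured in 96-well plates, with a 48-hour exposure period. GI50 = concentration required for 50% inhibition of growth. TGI marks complete inhibition of growth.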

Key:
Assay in all cases: DTP human tumour cell line panel, 48 h
SK-MEL-5 melanoma = system: SK-MEL-5 melanoma
RPMI-8226 leukemia = system: RPMI-8226 leukemia
U251 CNS = system: U251 CNS
T-47D breast = system: T-47D breast
OVCAR-4 ovarian = system: OVCAR-4 ovarian
NCI-H460 lung = system: NCI-H460 lung
COLO 205 colon = system: COLO 205 colon
LOX IMVI melanoma = system: LOX IMVI melanoma
HCC-2998 colon = system: HCC-2998 colon
MDA-MB-435 = system: MDA-MB-435

SMILES	GI50 (SK-MEL-5 melanoma)	TGI (SK-MEL-5 melanoma)	GI50 (RPMI-8226 leukemia)	TGI (RPMI-8226 leukemia)	GI50 (U251 CNS)	TGI (U251 CNS)	GI50 (T-47D breast)	TGI (T-47D breast)	GI50 (OVCAR-4 ovarian)	TGI (OVCAR-4 ovarian)	GI50 (NCI-H460 lung)	TGI (NCI-H460 lung)	GI50 (COLO 205 colon)	TGI (COLO 205 colon)	GI50 (LOX IMVI melanoma)	TGI (LOX IMVI melanoma)	GI50 (HCC-2998 colon)	TGI (HCC-2998 colon)	GI50 (MDA-MB-435)	TGI (MDA-MB-435)
CC(C)(CCN=C(N)Nc1ccccn1)c1ccc(C(F)(F)F)cc1	12 µM	25 µM	6.58 µM	26.7 µM	16.4 µM	30.4 µM	11.1 µM	28.5 µM	11.8 µM	28.1 µM	15.3 µM	31.2 µM	13.3 µM	28.1 µM	14.2 µM	27.6 µM	15.1 µM	29.6 µM	15.1 µM	29 µM
O=C(O)C1C2C=CC(C2)C1C(=O)O (configuration not stated)	> 100 µM	> 100 µM	> 100 µM	> 100 µM	> 100 µM	> 100 µM	> 100 µM	> 100 µM	> 100 µM	> 100 µM	> 100 µM	> 100 µM	> 100 µM	> 100 µM	> 100 µM	> 100 µM	> 100 µM	> 100 µM	> 100 µM	> 100 µM
O=C1CCCCC=C1C[N+](=O)[O-]	26.9 µM	74.3 µM	25.5 µM	58.5 µM	33.9 µM	> 100 µM	26.6 µM	88.1 µM	21.4 µM	46 µM	34.3 µM	> 100 µM	11.6 µM	39.7 µM	18.4 µM	39.1 µM	20.5 µM	43.6 µM	20.6 µM	41.2 µM
CN1CC[C@]2(c3cccc(O)c3)CC(=O)/C(=C/c3ccccc3)[C@H]1C2	–	9.35 µM	2.1 µM	> 22 µM	–	9.92 µM	2.57 µM	7.44 µM	–	11 µM	–	6.32 µM	3.06 µM	8.43 µM	–	4.1 µM	3.11 µM	9.99 µM	2.08 µM	8.96 µM
Cc1[nH]c(C(=O)Nc2ccccc2OC2CCNCC2)c(Cl)c1Cl	0.88 µM	1.59 µM	1.04 µM	2.59 µM	0.849 µM	1.61 µM	0.987 µM	2.09 µM	0.901 µM	1.69 µM	0.984 µM	1.93 µM	0.856 µM	1.63 µM	0.882 µM	1.61 µM	1.27 µM	3.48 µM	0.883 µM	1.62 µM
NC1CCC(Nc2nc(NCc3cc(Cl)ccc3O)c3ncn(C4CCCC4)c3n2)CC1 (configuration not stated)	0.175 µM	0.325 µM	0.202 µM	0.474 µM	0.14 µM	0.444 µM	0.259 µM	0.858 µM	0.183 µM	0.778 µM	0.125 µM	0.958 µM	0.0965 µM	0.238 µM	0.537 µM	5 µM	0.201 µM	0.603 µM	0.149 µM	0.328 µM
c1cc(CSSCc2ccncc2)ccn1	–	56.6 µM	–	> 65.3 µM	–	> 70.9 µM	–	> 100 µM	–	> 100 µM	–	> 84.9 µM	–	49.2 µM	–	> 100 µM	–	58.7 µM	–	> 68.3 µM
CSCC[C@H](NC(=O)[C@H](CC(C)C)NC(=O)[C@@H](Cc1ccccc1)NC(=O)CNC(=O)[C@@H](NC(=O)[C@H](C)NC(=O)[C@H](Cc1c[nH]c2ccccc12)NC(=O)[C@H](CCC(N)=O)NC(=O)[C@H](N)CC(N)=O)C(C)C)C(N)=O	–	> 12.5 µM	–	> 12.5 µM	–	> 12.5 µM	–	> 12.5 µM	–	> 12.5 µM	–	> 12.5 µM	–	> 12.5 µM	–	> 12.5 µM	–	> 12.5 µM	–	> 12.5 µM
N#CC1(Nc2ccc(-c3ccc(NC4(C#N)CCCC4)cc3)cc2)CCCC1	–	> 100 µM	–	> 100 µM	–	> 100 µM	–	> 100 µM	–	> 100 µM	–	> 100 µM	–	> 100 µM	–	> 100 µM	–	> 100 µM	–	> 100 µM
CSc1ccc2c(c1)N(CCC1CCCCN1C)c1ccccc1S2 (configuration not stated)	1.86 µM and 1.64 µM	3.89 µM and 3.02 µM	8.8 µM and 2.23 µM	27.1 µM and 6.05 µM	5.92 µM and 3.53 µM	19.2 µM and 12.2 µM	5.82 µM and 3.4 µM	23.3 µM and 11.4 µM	7.99 µM and 5.22 µM	20.3 µM and 16.9 µM	4.52 µM and 2.03 µM	17.9 µM and 4.28 µM	6.22 µM and 3.57 µM	24 µM and 13.2 µM	3.44 µM and 1.78 µM	14.8 µM and 3.34 µM	3.12 µM and 4.54 µM	11.5 µM and 14.1 µM	3.48 µM and 3.1 µM	13.6 µM and 11.1 µM
C=C1COC(O)(C2OCOC(C3CC(=O)NC(=O)C3)C2O)C1C (configuration not stated)	0.00166 µM	0.00459 µM and 0.00385 µM	0.00236 µM	0.0063 µM and 0.0127 µM and 0.0451 µM	0.00275 µM	0.0376 µM and 0.0739 µM	0.00457 µM	–	–	0.0181 µM and 0.0242 µM	0.0107 µM	0.18 µM and 0.172 µM	0.00292 µM	0.0128 µM	0.00234 µM	0.00553 µM and 0.0217 µM	0.00218 µM	0.0174 µM and 0.0244 µM	0.00481 µM	0.037 µM
CCCCCCCCCCC/C=C\C[C@H](O)C/C=C1/C(=O)C=C[C@@H]1C/C=C\CCCC(=O)OC	0.603 µM	1.17 µM	0.534 µM	1.62 µM	0.581 µM	1.53 µM	0.796 µM	3.44 µM	0.862 µM	3.68 µM	1.11 µM	3.91 µM	1.21 µM	3.83 µM	0.536 µM	1.05 µM	1.24 µM	4.01 µM	0.71 µM	1.8 µM
Cc1cc2nc3ccc(=[N+](C)C)cc-3sc2cc1N	0.145 µM and 0.284 µM	0.324 µM and 1.81 µM and 1.33 µM	0.218 µM and 0.0867 µM	–	0.357 µM and 0.381 µM	2.55 µM and 18.9 µM and 2.11 µM	0.475 µM and 0.722 µM	4.52 µM and 28.8 µM and 6.75 µM	0.21 µM and 0.146 µM	–	0.457 µM and 1.56 µM	7.56 µM and 24.5 µM and 11.8 µM	0.745 µM and 0.309 µM	2.19 µM and 9.28 µM and 0.94 µM	0.27 µM and 0.301 µM	1.37 µM and 8.39 µM and 1.4 µM	1.2 µM and 2.12 µM	7.36 µM and 12.2 µM and 10.9 µM	0.209 µM and 0.256 µM	0.46 µM and 2.18 µM and 0.665 µM
Cc1ccc(/C=C/C(=N/N=C(N)N)c2ccccc2)cc1	1.69 µM	3.86 µM	2.3 µM	7.98 µM	3.1 µM	12.5 µM	4.3 µM	18.1 µM	3.65 µM	15.6 µM	3.1 µM	10.1 µM	1.69 µM	3.74 µM	3.28 µM	15.5 µM	3.11 µM	11.8 µM	0.432 µM	4.93 µM
CCCCCCCCCCCCCCCC(=O)N[C@H](/C=C/[C@H](O)CCCCCCCCCCCCC)CO	> 100 µM	> 100 µM	0.884 µM	> 100 µM	> 100 µM	> 100 µM	> 100 µM	> 100 µM	> 100 µM	> 100 µM	> 100 µM	> 100 µM	> 100 µM	> 100 µM	> 100 µM	> 100 µM	> 100 µM	> 100 µM	> 100 µM	> 100 µM
O=S1(=O)NC2CCC3NS(=O)(=O)NC4CCC(N1)N4S(=O)(=O)N23 (configuration not stated)	–	> 100 µM	–	> 100 µM	–	> 100 µM	–	> 100 µM	–	> 100 µM	–	> 100 µM	–	> 100 µM	–	> 100 µM	–	> 100 µM	–	> 100 µM
CCOc1ccc2c(C)cc(=O)oc2c1	–	> 100 µM	–	> 100 µM	–	> 100 µM	–	> 100 µM	–	> 100 µM	–	> 100 µM	–	> 100 µM	–	> 100 µM	–	> 100 µM	–	> 100 µM
COc1cccc(-n2cc(-c3nc(Nc4cc(C)[nH]n4)c4ccccc4n3)nn2)c1	1.07 µM	4.06 µM	3.57 µM	13.8 µM	1.87 µM	9.32 µM	2 µM	9.61 µM	2.24 µM	9.57 µM	2.65 µM	11.3 µM	6.8 µM	15.9 µM	5.15 µM	12.3 µM	5.86 µM	13.3 µM	2.24 µM	9.18 µM
CCC(C)[C@H](NC(=O)NC(=O)NC(=O)CI)C(=O)OC (some centres not stated)	16.7 µM	30.5 µM	3.16 µM	9.27 µM	14.8 µM	27.9 µM	10 µM	34.8 µM	2.48 µM	8.68 µM	17.4 µM	39.4 µM	1.77 µM	3.6 µM	1.69 µM	3.27 µM	13.7 µM	26.9 µM	10.5 µM	22.3 µM
CCOC(=O)c1ccc2c(c1)nc(/C=C/c1ccc(Cl)cc1)n2-c1cc(C(C)(C)C)[nH]n1	3.63 µM	28.3 µM	8.14 µM	> 100 µM	3.28 µM	13.2 µM	5.82 µM	52.4 µM	1.9 µM	7.31 µM	6.28 µM	> 100 µM	28.6 µM	> 100 µM	–	–	> 100 µM	> 100 µM	10.5 µM	> 100 µM
CNc1cc2nc3cc(NC)c(C)cc3cc2cc1C	2.05 µM	14 µM	1.04 µM	5.12 µM	–	–	1.1 µM	18.4 µM	1.03 µM	3.26 µM	0.41 µM	1.66 µM	0.64 µM	2.35 µM	0.446 µM	1.79 µM	1.6 µM	14.7 µM	2.48 µM	18.3 µM
